Measurements taken from US11701371B2, “ENPP1 inhibitors and their use for the treatment of cancer” (THE BOARD OF TRUSTEES OF THE LELAND STANFORD JUNIOR …, priority 2017, dated 2023).

Legend:
[1] = biological target: T1, purified recombinant mouse ENPP1 (Mus musculus (Mouse), UniProt P06802); assay: ENPP1 enzyme activity assay using 32P cGAMP as a substrate; type: biochemical; details: 32P-cGAMP 5 μM, mouse ENPP1 20 nM, pH 7.5, 5 hours
[2] = tested on: 4T1-luciferase tumor; assay: 4T1-luciferase tumor model with IR, cGAMP and anti-CTLA-4: tumor volume and survival; type: in vivo, mouse; details: single agent intratumoral on day 2, 4 and 7 after 20 Gy IR
[3] = biological target: T1, purified recombinant mouse ENPP1; assay: ENPP1 activity assay using TMP-pNP as a substrate; type: biochemical; details: TMP-pNP 2 μM, mouse ENPP1 0.5 nM, pH 7.5
Experimental: Selected compounds of Table 1, Table 2 and other derivatives were prepared and assessed in an ENPP1 activity assay using thymidine monophosphate paranitrophenol (TMP-pNP) as a substrate. Enzyme reactions were prepared with TMP-pNP (2 μM), 5-fold dilutions of ENPP1 inhibitor, and purified recombinant mouse ENPP1 (0.5 nM) in 100 mM Tris, 150 mM NaCl, 2 mM CaCl2, 200 μM ZnCl2, pH 7.5 at room temperature. Reaction progress was monitored by measuring absorbance at 400 nm of paranitrophenolate produced by the reaction for 20 minutes.

T1 sequence (P06802 whole entry): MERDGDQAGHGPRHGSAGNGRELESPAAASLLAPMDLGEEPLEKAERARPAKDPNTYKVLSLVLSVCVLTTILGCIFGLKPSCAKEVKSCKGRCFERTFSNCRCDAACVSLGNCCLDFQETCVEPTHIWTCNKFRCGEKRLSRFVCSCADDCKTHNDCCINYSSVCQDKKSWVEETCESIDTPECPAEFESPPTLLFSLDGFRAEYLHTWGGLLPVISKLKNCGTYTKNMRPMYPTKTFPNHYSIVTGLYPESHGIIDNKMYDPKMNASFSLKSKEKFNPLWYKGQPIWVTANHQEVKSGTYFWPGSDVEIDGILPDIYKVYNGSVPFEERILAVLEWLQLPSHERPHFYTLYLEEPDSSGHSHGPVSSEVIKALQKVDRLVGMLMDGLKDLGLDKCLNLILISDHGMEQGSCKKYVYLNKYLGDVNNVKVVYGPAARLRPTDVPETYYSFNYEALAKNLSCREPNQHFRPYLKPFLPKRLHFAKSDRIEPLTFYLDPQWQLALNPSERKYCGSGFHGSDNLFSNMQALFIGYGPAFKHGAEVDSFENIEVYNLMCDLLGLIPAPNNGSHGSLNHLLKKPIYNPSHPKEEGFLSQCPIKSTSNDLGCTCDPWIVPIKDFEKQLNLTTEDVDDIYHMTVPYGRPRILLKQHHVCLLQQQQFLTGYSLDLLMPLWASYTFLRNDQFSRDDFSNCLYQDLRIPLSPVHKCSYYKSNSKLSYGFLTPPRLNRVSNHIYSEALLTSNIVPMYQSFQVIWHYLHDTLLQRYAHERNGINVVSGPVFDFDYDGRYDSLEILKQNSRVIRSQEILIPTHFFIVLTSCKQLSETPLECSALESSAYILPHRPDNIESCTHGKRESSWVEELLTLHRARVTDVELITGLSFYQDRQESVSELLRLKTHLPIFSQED

Question: For `COc1ccc2c(N3CCC(CCP(=O)(O)O)CC3)nc(C)nc2c1` [Compound 12], which IC50 [1] is on record?
Answer: 0.5 to 5 µM

Question: `Nc1nc2c(ncn2[C@@H]2O[C@@H]3COP(=O)(O)O[C@H]4[C@@H](O)[C@H](n5cnc6c(N)ncnc65)O[C@@H]4COP(=O)(O)O[C@@H]2[C@@H]3O)c(=O)[nH]1` [cGAMP, cyclic guanosine monophosphate-adenosine monophosphate] was tested. Which “tumor shrinkage effect on top of IR treatment” value [2] did it give?
Answer: no effect over IR treatment

Question: `O=P(O)(O)CCC1CCN(c2ncnc3nc[nH]c23)CC1` [Compound 68] was tested. Which IC50 [3] did it give?
Answer: 0.5 to 5 µM
